# Molecular target: T1, SIRT1 (Homo sapiens, UniProt Q96EB6)
# T1 sequence (Q96EB6 1-747): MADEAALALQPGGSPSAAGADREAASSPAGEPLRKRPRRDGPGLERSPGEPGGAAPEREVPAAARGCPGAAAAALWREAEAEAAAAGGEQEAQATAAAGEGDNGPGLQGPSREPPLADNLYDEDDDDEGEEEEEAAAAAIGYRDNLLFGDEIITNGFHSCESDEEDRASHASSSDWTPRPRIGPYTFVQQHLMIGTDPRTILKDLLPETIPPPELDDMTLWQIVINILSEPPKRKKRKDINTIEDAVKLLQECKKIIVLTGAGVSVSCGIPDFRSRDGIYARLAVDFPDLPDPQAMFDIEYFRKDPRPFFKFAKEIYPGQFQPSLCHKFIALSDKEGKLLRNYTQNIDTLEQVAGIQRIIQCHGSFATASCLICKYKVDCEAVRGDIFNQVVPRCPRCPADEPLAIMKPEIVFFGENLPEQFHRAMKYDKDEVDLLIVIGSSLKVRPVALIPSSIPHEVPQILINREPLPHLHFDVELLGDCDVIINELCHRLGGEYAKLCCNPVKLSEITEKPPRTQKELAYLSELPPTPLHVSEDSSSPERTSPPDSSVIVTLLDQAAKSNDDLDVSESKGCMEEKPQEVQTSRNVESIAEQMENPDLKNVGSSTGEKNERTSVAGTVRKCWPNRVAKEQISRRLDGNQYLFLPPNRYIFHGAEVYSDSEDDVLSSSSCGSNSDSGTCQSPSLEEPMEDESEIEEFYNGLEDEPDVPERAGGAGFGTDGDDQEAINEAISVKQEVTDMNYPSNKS
# Experiment: Trp mass spectrometry assay of SIRT1 activity
# Assay type: biochemical
# Settings: Trp assay; concentration giving 150% activation of SIRT1
# Method in brief: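 His-tagged SIRT1 expressed in E. coli BL21(DE3), 10 nM, incubated 25 min at 25° C. with 0.5 μM Ac-RHKK(Ac)W-NH2 peptide and 120 μM βNAD+ in 50 mM HEPES pH 7.5, […], 1 mM DTT, 0.05% BSA; formic acid stop. OAADPR or deacetylated peptide measured by mass spectrometry; EC1.5 and percent maximum activation versus DMSO control.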
row,SMILES,Trp EC1.5 (μM)
1,"O=C(Nc1cccnc1)c1cnc2ccc(N3CCCC3C(F)(F)F)nn12 (centres unmarked) [Compound 966, N-(pyridin-3-yl)-6-(2-(trifluoromethyl)pyrrolidin-1-yl)imidazo[1,2-b]pyridazine-3-carboxamide]",A (EC1.5<1 μM)

# Same assay, conditions: Trp assay; percent maximum fold activation; read-out: Trp % Fold Act
row,SMILES,Emax [%]
1,O=C(Nc1ccc(F)cn1)c1cnc2ccc(N3CCC(F)(F)CC3)nn12 [Compound 962],< 350
2,O=C(Nc1ccncc1F)c1cnc2ccc(N3CCC(F)(F)CC3)nn12 [Compound 963],< 350
3,O=C(Nc1ccncn1)c1cnc2ccc(N3CCC(F)(F)CC3)nn12 [Compound 964],< 350
4,Cc1nc(NC(=O)c2cnn3ccc(N4CCCCC4C(F)(F)F)nc23)sc1C (centres unmarked) [Compound 965],≥ 350
5,"O=C(Nc1cccnc1)c1cnc2ccc(N3CCCC3C(F)(F)F)nn12 (centres unmarked) [Compound 966, N-(pyridin-3-yl)-6-(2-(trifluoromethyl)pyrrolidin-1-yl)imidazo[1,2-b]pyridazine-3-carboxamide]",≥ 350
6,O=C(Nc1cncc(F)c1)c1cnc2ccc(N3CCCC3C(F)(F)F)nn12 (centres unmarked) [Compound 967],≥ 350
7,O=C(Nc1cccnn1)c1cnc2ccc(N3CCCC3C(F)(F)F)nn12 (centres unmarked) [Compound 968],≥ 350
8,Cc1nc(NC(=O)c2cnc3ccc(N4CCCC4C(F)(F)F)nn23)sc1C (centres unmarked) [Compound 969],≥ 350
9,"O=C(Nc1ccncn1)c1cnc2ccc(N3CCCC3C(F)(F)F)nn12 (centres unmarked) [Compound 970, N-(pyrimidin-4-yl)-6-(2-(trifluoromethyl)pyrrolidin-1-yl)imidazo[1,2-b]pyridazine-3-carboxamide]",≥ 350
10,CN1CCN(c2ccc3ncc(C(=O)Nc4ccncn4)n3n2)CC1 [Compound 971],< 350
11,CC1(C)CCN(c2ccc3ncc(C(=O)Nc4ccncn4)n3n2)C1 [Compound 972],< 350
12,"CO[C@H]1CCN(c2ccc3ncc(C(=O)Nc4ccncn4)n3n2)C1 [Compound 973, (S)-6-(3-methoxypyrrolidin-1-yl)-N-(pyrimidin-4-yl)imidazo[1,2-b]pyridazine-3-carboxamide]",< 350
13,O=C(Nc1ccccn1)c1cnc2ccc(N3CCCC3C(F)(F)F)nn12 (centres unmarked) [Compound 974],≥ 350
14,CC1CCN(c2ccc3ncc(C(=O)Nc4ccccn4)n3n2)C1 (centres unmarked) [Compound 975],< 350
15,CC1CCN(c2ccc3ncc(C(=O)Nc4cccnc4)n3n2)C1 (centres unmarked) [Compound 976],≥ 350
16,CC1CCN(c2ccc3ncc(C(=O)Nc4ccc(F)cn4)n3n2)C1 (centres unmarked) [Compound 977],< 350

row,SMILES,Emax [%]
1,CC1CCN(c2ccc3ncc(C(=O)Nc4cccnn4)n3n2)C1 (centres unmarked) [Compound 978],≥ 350
2,CC1CCN(c2ccc3ncc(C(=O)Nc4cncc(F)c4)n3n2)C1 (centres unmarked) [Compound 979],≥ 350
3,"Cc1nc2ccc(N3CCC(F)(F)C3)nn2c1C(=O)Nc1cccnc1 [Compound 980, 6-(3,3-difluoropyrrolidin-1-yl)-2-methyl-N-(pyridin-3-yl)imidazo[1,2-b]pyridazine-3-carboxamide]",≥ 350
4,O=C(Nc1ccccn1)c1cnc2ccc(N3CC[C@H](O)C3)nn12 [Compound 981],< 350
5,O=C(Nc1cccnc1)c1cnc2ccc(N3CC[C@H](O)C3)nn12 [Compound 982],< 350
6,O=C(Nc1ccc(F)cn1)c1cnc2ccc(N3CC[C@H](O)C3)nn12 [Compound 983],< 350
7,O=C(Nc1cccnn1)c1cnc2ccc(N3CC[C@H](O)C3)nn12 [Compound 984],< 350
8,O=C(Nc1cncc(F)c1)c1cnc2ccc(N3CC[C@H](O)C3)nn12 [Compound 985],< 350
9,O=C(Nc1ccccn1)c1cnc2ccc(N3CCC[C@H](F)C3)nn12 [Compound 986],≥ 350
10,O=C(Nc1cccnc1)c1cnc2ccc(N3CCC[C@H](F)C3)nn12 [Compound 987],≥ 350
11,O=C(Nc1ccc(F)cn1)c1cnc2ccc(N3CCC[C@H](F)C3)nn12 [Compound 988],≥ 350
12,O=C(Nc1cccnn1)c1cnc2ccc(N3CCC[C@H](F)C3)nn12 [Compound 989],≥ 350
13,Cc1nc2ccc(N3CCC(F)(F)C3)nn2c1C(=O)Nc1cncc(F)c1 [Compound 991],< 350
14,CC1CCN(c2ccc3ncc(C(=O)Nc4ccncn4)n3n2)C1 (centres unmarked) [Compound 992],< 350
15,O=C(Nc1ccncn1)c1cnc2ccc(N3CCC[C@H](F)C3)nn12 [Compound 993],≥ 350

# — US9957271B2, “Substituted bicyclic aza-heterocycles and analogues as sirtuin modulators” (GlaxoSmithKline, LLC, priority 2012, dated 2018)
